The target of test [1] is Cyclin-dependent kinase 16 (Homo sapiens) (UniProt Q00536). The test is described as follows: Selectivity interaction (Kinase panel (KiNativ target engagement assay in Jurkat cells)) EUB0001635a CDK16. Particulars: Selectivity number of off-targets 0.0, Selectivity number of targets 233.0, Source Knowledge https://www.sciencedirect.com/science/article/pii/S2451945619300674?via%3Dihub, at 1 µM. It counts as cell-based.

Test [2] has as its target Phosphatidylinositol 4-phosphate 5-kinase type-1 alpha (Homo sapiens) (UniProt Q99755). In words: Selectivity interaction (Ambit KINOMEscan and KiNATiv profiling in Jurkat cells) EUB0000090b PIP5K1A. It counts as cell-based. Particulars: at 1 µM.
Test [3] deals with Serine/threonine-protein kinase 26 (Homo sapiens, UniProt Q9P289). To be noted: at 10 µM.
Test [4] has as its target Histone-lysine N-methyltransferase KMT5B (Homo sapiens) (UniProt Q4FZB7). Particulars: at 1 µM.
The target of test [5] is Cyclin-dependent kinase 13 (Homo sapiens, UniProt Q14004). The test is described as follows: Selectivity interaction (KinomeScan (DiscoverX)) EUB0000655a CDK13. To be noted: at 10 µM.
Test [6] addresses T1, Dual specificity mitogen-activated protein kinase kinase 4 (Homo sapiens) (UniProt P45985).
T1 sequence (whole entry): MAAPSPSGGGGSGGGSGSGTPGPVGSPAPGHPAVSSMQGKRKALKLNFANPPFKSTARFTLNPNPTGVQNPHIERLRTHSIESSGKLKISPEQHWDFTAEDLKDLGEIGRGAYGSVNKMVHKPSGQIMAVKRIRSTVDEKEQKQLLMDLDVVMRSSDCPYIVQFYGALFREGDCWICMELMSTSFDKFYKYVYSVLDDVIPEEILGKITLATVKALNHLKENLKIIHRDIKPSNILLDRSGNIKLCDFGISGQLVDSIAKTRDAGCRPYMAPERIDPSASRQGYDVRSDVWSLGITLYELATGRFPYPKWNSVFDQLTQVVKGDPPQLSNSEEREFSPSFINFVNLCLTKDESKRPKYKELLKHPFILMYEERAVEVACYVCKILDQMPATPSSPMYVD
The test is described as follows: Selectivity interaction (ActivX KiNativ screen (kinase selectivity in THP-1 cell lysates)) EUB0000639a MAP2K4. It counts as subcellular. To be noted: lysate, at 0.2 µM.

Test [7] concerns the target T2, MAP kinase-activated protein kinase 5 (Homo sapiens) (UniProt Q8IW41).
T2 sequence (whole entry): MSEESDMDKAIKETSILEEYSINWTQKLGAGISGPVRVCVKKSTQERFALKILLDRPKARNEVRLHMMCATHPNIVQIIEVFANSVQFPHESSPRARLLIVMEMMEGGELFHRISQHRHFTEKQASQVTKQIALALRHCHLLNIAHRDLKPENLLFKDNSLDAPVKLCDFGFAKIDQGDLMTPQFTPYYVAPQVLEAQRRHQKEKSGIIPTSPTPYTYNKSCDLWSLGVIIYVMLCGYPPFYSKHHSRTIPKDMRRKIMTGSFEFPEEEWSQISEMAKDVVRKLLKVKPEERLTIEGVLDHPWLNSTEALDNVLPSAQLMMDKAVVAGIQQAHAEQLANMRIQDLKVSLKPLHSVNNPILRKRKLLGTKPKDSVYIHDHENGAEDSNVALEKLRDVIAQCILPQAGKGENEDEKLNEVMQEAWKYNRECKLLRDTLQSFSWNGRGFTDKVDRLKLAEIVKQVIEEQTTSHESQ
In words: Selectivity interaction (KinomeScan (DiscoverX)) EUB0001049a MAPKAPK5. To be noted: at 1 µM.

The target in test [8] is T3, Tyrosine-protein kinase receptor TYRO3 (Homo sapiens) (UniProt Q06418).
T3 sequence (whole entry): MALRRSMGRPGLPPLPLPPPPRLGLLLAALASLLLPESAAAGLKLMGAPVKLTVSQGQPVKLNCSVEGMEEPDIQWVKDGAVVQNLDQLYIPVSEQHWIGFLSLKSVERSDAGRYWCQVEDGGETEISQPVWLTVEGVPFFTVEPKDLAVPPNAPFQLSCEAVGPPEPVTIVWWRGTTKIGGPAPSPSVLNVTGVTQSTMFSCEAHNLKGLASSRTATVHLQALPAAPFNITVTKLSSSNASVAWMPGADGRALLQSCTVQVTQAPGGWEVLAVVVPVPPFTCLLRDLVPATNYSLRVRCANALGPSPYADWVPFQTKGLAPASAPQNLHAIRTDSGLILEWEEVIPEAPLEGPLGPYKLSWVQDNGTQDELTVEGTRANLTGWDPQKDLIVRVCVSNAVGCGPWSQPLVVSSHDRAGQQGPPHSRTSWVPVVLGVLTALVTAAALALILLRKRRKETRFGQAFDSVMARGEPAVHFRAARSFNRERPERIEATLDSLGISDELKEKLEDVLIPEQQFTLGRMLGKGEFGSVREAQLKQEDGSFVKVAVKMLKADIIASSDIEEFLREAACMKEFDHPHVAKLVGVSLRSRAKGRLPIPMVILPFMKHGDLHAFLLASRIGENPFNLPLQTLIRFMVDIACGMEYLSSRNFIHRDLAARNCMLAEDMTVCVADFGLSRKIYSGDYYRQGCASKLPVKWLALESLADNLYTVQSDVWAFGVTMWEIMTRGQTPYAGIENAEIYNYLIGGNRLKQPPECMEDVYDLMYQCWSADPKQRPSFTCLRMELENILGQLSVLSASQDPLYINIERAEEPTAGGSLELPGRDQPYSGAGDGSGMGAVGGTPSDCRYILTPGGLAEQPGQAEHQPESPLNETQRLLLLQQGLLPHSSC
In words: Selectivity interaction (ProQinase) EUB0000171b TYRO3.

Test [9] addresses Bromodomain-containing protein 4 (Homo sapiens, UniProt O60885). In words: Selectivity interaction (Bromodomain panel (DSF asssay)) EUB0000270b BRD4.

Phosphatidylinositol 4-phosphate 5-kinase type-1 alpha (Homo sapiens), sequence (Q99755 whole entry): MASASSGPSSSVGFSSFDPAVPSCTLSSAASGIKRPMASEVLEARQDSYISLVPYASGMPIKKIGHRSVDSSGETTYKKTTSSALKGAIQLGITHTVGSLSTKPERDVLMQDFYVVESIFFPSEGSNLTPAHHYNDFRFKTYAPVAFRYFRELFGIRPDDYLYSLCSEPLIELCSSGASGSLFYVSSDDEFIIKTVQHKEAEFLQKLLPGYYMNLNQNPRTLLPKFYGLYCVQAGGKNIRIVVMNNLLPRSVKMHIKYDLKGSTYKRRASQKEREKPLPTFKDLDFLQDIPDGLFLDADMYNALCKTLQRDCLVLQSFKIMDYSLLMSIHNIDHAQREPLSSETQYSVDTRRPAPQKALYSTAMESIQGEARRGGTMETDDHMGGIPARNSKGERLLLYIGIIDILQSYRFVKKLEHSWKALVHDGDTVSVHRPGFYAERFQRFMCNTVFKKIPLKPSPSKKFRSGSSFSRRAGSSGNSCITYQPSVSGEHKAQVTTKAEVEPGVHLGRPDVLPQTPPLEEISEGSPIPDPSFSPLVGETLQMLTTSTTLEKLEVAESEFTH
Cyclin-dependent kinase 16 (Homo sapiens), sequence (Q00536 whole entry): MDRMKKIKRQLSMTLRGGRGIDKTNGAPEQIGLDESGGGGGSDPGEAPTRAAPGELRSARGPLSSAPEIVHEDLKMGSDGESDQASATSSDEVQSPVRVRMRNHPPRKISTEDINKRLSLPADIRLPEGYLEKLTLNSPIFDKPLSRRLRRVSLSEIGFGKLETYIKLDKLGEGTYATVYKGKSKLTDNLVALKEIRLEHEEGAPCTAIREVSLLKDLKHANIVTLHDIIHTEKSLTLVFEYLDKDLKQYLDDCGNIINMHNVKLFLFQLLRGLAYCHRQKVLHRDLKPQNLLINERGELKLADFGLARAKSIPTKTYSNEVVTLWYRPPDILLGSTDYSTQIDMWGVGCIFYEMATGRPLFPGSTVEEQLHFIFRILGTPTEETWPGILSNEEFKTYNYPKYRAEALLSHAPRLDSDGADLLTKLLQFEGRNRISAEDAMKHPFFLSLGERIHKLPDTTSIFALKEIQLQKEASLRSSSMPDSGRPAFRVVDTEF
Histone-lysine N-methyltransferase KMT5B (Homo sapiens), sequence (Q4FZB7 whole entry, looked up): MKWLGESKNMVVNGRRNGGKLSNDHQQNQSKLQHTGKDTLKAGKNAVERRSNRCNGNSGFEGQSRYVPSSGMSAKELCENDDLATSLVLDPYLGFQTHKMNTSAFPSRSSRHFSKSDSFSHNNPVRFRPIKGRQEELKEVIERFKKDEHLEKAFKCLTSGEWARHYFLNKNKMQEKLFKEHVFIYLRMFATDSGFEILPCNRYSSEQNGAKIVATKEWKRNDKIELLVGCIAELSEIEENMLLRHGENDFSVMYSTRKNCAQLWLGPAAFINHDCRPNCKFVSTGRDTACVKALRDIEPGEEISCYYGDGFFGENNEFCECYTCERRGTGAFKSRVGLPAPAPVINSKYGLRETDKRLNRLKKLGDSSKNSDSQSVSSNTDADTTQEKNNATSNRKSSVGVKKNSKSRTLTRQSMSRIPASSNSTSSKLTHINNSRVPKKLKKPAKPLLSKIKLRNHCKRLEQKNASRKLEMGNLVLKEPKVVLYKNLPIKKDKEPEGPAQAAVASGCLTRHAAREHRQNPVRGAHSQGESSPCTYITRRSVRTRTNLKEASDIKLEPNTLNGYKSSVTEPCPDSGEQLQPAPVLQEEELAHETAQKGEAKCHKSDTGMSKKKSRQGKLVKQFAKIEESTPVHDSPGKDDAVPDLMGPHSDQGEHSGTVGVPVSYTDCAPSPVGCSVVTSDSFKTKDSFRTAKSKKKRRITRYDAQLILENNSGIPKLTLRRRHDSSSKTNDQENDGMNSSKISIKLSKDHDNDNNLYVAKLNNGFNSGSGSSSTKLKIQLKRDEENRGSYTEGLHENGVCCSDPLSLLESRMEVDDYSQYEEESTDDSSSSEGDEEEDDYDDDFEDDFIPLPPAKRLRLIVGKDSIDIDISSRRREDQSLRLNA
Cyclin-dependent kinase 13, sequence (Q14004 whole entry, looked up): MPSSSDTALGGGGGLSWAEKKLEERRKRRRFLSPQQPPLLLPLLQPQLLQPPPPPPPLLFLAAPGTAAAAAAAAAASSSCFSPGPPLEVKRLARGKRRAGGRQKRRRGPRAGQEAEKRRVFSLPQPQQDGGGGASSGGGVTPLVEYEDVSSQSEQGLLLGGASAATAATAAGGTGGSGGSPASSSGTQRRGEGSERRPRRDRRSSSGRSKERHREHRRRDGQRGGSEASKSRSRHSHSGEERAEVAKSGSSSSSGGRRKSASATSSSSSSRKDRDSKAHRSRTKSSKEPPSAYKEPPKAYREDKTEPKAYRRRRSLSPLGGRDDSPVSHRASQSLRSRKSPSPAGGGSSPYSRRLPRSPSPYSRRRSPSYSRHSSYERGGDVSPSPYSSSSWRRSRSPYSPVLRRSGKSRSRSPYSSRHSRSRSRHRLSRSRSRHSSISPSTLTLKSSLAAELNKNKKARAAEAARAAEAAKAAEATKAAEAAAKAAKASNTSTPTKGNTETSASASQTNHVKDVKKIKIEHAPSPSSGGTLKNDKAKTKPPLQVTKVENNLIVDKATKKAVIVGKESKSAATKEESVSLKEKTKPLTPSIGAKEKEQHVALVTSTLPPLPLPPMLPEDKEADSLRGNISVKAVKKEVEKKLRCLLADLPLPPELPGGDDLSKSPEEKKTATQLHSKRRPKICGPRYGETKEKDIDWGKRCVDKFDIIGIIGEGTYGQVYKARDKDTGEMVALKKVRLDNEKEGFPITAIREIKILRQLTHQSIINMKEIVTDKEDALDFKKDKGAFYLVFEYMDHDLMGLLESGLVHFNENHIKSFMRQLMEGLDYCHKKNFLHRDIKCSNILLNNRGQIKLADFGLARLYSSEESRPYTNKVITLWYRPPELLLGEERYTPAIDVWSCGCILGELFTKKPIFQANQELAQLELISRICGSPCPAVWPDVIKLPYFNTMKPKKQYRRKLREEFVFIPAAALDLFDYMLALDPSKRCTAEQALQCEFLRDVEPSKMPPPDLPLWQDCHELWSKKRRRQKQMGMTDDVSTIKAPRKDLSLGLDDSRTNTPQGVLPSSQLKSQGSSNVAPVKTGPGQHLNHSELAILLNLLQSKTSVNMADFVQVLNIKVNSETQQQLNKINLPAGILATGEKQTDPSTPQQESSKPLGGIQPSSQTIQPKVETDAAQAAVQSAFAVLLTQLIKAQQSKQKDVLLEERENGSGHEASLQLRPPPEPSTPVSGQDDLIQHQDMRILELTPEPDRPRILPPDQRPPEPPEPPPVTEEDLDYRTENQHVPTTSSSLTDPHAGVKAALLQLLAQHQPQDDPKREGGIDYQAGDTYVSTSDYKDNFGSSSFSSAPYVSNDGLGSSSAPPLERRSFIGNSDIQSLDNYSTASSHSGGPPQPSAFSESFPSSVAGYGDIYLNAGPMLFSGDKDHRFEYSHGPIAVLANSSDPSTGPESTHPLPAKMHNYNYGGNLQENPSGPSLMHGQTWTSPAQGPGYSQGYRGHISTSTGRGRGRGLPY
Serine/threonine-protein kinase 26, sequence (Q9P289 2-416 limits assumed): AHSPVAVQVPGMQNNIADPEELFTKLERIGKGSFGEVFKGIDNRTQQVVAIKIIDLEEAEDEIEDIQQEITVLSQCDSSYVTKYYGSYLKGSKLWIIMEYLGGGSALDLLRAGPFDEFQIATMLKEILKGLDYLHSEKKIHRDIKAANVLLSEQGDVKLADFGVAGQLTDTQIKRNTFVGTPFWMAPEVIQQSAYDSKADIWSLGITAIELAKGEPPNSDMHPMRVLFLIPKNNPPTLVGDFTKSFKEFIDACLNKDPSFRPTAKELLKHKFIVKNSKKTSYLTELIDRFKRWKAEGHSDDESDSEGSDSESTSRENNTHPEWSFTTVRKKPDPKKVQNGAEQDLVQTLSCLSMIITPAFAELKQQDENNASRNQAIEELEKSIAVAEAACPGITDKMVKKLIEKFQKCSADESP

In test [1], `C=CC(=O)Nc1ccc(C(=O)Nc2[nH]nc3c2CN(C(=O)N[C@H](CN(C)C)c2ccccc2)C3(C)C)cc1` displayed a % of engagement of 3.1%.
With `CN(C)C/C=C/C(=O)Nc1ccc(C(=O)N2CCCC(Nc3ncc(Cl)c(-c4c[nH]c5ccccc45)n3)C2)cc1` (stereo not given), the % of control in test [2] turned out to be 78%.
Compound `Cc1cc([C@@H](C)Nc2ccccc2C(=O)O)c2nc(N3CCOCC3)cc(=O)n2c1` [AZD-6482] had a % of control in test [3] of 100%.
For `CNCCN1CCC(c2cc(CN(C)C(=O)c3cccc(Oc4ccccc4)c3)ccn2)CC1`, the % activity in test [4] was greater than 90%.
In [5], `CN(C)CCOc1ccc(-c2nc(-c3ccncc3)c(-c3ccc4c(c3)CC/C4=N\O)[nH]2)cc1` showed a % of control of 100%.
`CC[C@@H]1[C@H](F)C(=O)N[C@@H]1COc1nccc2cc(C(N)=O)c(OC)cc12` [ZIMLOVISERTIB] returned a % of inhibition in [6] of 15.8%.
In turn, `COc1cc(Nc2nc(C)cc(-c3cnn4nc(OC)ccc34)n2)cc(C(F)(F)F)c1` registered a % of control in test [7] of 82%.
Regarding `C=CC(=O)Nc1cccc(C(=O)Nc2ccc(Nc3cc(-c4[nH]c(SC)nc4C)ccn3)cc2)c1`, the % of control in test [8] (at 1 µM) came out at 100%; in [8] (at 5 µM), 86%.
With `Cc1cc(CN)cc(C)c1-c1ncn(C)c1-c1cncn1C`, the dTM in test [9] was -1.68 K.
